Tests used:
pregnant guinea pigs = experiment: Abortifacient / labor inducing activity in pregnant guinea pigs; type: in vivo, guinea pig; settings: for abortifacient activity ED50, guinea pig: s.c., treatment day 43-44 of pregnancy, autopsy day 50; for ranking of abortifacient activity: treated on days 43 and 44 of pregnancy, observed until day 50
Description: In the guinea pig model which allows a good prediction of the effects in humans with respect to the abortifacient activity (Elger W, Beier S., Chwalisz K, Fähnrich M, Hasan S H, Henderson D, Neef G, Rohde R (1986): Studies on the mechanism of action of progesterone antagonists. J Steroid Biochem 25: 835-845) the mesoprogestins J 867, J 912, J 956, J 1042 lead up to 100 mg/kg/day to a maximal abortion rate of 20%.
(§1) The guinea pig is considered as relevant model of human gestation and parturition (Elger W, Fähnrich M, Beier S, Quing S S, Chwalisz K (1987). Endometrial and myometrial effects of progesterone antagonists in pregnant guinea pigs. Am J Obstet Gynecol 157: 1065-1074; Elger W, Neef G, Beier S, Fähnrich M, Gründel M, Heermann J, Malmendier A, Laurent D, Puri C P, Singh M M, Hasan S H, Becker H (1992). Evaluation of antifertility activities of antigestagens in animal model. In: Puri C P and Van Look P F A (eds), Current Concepts in Fertility Regulation and Reproduction. Wiley Eastern Limited, New Delhi, pp. 303-328; Elger W, Faehnrich M, Beier S, Qing S S, Chwalisz K (1986). Mechanism of action of progesterone antagonists in pregnant guinea pigs. Contraception 6: 47-62; Elger W, Chwalisz K, Faehnrich M, Hasan S H, Laurent D, Beier S, Ottow E, Neef G, Garfield R E (1990). Studies on labor-conditioning and labor-inducing effects of antiprogesterones in animal model. In: Garfield R E (eds), Norwell, pp. 153-175.) The mechanism of abortion of antiprogestins in this species is the initiation of labor and finally the expulsion of the conceptus. Abortifacient effects in the rat during very early pregnancy reflect inhibitory effects on nidation rather than initiation of uterine contractions. Studies in the rat model lead to “overestimation” of the potential of antiprogestins to terminate pregnancy in humans. Conversely, in the guinea pig model, irrespective of the antiprogestin doses, there were high rates of ongoing pregnancies similar to the situation in humans (Elger et al., Current Concepts in Fertility Regulation and Reproduction cited above). Furthermore, in both humans and guinea pigs, there is a strong synergism between antiprogestins and prostaglandins with respect the induction of labor (see the articles cited above and Elger W, Beier S (1983). Prostaglandine and Antigestagene für den Schwangerschaftsabbruch (Prostaglandins and antigestagens for pregnancy termination). German Patent DE 3337450 12; Van Look P, Bygdeman M (1989). Antiprogestational steroids: a new dimension in human fertility regulation. Oxford reviews of reproductive medicine 11: 2-60).
Pregnant guinea pigs were treated on days 43 and 44 of pregnancy and observed until day 50 of gestation. For the effects of various treatments see table 1 and FIG. 2. It is typical for this model that expulsions occur with a delay of several days after treatment. It can be seen that Mesoprogestins have a much reduced abortifacient activity compared to RU486. […] The differences with respect to abortifacient activity seem qualitative ones. It is not possible to overcome the low abortifacient activity of a Mesoprogestin by the use of a higher dose.
FIG. 2 is graphs showing data on the assessment on cumulative rate of abortion until day 50 in guinea pigs treated on days 43 and 44 of pregnancy.

GR = target: T1, GR (Homo sapiens, UniProt P04150); experiment: Relative binding activity (RBA) at GR, dexamethasone = 100%; settings: by Kaufmann
T1 sequence (P04150 1-777): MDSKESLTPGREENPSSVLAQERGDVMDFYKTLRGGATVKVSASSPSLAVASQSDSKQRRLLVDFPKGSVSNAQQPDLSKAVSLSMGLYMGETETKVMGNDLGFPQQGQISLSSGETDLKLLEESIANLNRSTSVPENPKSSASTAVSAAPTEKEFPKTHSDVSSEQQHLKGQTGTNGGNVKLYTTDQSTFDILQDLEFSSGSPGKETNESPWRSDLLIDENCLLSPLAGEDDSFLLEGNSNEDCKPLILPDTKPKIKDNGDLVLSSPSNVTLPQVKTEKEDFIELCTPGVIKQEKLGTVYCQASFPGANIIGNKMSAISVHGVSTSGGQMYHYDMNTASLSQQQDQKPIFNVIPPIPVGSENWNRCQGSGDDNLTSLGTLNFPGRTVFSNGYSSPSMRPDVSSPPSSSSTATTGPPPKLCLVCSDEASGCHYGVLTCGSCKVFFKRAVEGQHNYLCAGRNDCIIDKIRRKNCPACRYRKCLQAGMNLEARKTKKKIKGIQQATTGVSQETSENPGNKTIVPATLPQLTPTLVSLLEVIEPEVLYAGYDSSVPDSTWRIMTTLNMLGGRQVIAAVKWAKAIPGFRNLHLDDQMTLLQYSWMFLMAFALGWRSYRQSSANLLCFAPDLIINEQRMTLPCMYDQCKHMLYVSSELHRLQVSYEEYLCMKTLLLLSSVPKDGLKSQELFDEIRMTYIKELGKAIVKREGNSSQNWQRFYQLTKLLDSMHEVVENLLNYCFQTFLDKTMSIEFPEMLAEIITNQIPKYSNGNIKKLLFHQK

pregnant rats = experiment: Abortifacient activity in pregnant rats; type: in vivo, rat; settings: s.c.; treatment days 5-7 of pregnancy, autopsy day 9; * SAS, probit procedure
Excerpt: as §1

[1] = target: T2, PR (progesterone receptor) (Homo sapiens, UniProt P06401); experiment: Relative binding activity (RBA) at PR, progesterone = 100%; settings: by Kaufmann
T2 sequence (P06401 1-933): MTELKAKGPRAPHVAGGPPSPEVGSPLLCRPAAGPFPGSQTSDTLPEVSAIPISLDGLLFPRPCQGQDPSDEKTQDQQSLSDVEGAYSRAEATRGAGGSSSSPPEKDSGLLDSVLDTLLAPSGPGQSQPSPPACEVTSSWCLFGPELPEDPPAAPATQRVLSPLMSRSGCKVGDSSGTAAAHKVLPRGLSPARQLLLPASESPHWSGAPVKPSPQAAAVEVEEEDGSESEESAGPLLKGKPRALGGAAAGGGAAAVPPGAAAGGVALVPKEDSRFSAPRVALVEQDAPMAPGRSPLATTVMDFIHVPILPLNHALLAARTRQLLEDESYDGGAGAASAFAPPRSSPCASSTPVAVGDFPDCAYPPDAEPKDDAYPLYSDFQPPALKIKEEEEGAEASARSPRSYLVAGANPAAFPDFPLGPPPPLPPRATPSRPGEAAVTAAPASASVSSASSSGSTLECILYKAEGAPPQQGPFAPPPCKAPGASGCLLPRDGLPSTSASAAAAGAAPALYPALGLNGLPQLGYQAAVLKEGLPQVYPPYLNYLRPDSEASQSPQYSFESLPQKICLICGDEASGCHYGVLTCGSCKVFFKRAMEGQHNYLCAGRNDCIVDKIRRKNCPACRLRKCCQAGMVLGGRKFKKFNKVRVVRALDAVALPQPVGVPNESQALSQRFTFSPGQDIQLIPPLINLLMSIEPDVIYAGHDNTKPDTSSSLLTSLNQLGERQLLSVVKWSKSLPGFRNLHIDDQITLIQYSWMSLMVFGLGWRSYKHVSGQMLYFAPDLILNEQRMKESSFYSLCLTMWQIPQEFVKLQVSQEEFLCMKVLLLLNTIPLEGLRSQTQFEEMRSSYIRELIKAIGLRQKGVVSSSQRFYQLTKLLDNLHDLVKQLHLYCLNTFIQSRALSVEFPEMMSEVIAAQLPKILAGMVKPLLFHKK

[2] = as described in DE 43 32 283 / DE 43 32 284; cited from earlier work
[3] = as described in DE 43 32 283 / DE 43 32 284; cited from earlier work; remark: listed apart in the source
cyclic guinea pigs = settings: cited from earlier work
[4] = target: T3, progesterone receptor (PR) (Oryctolagus cuniculus, UniProt P06186); experiment: McPhail test, PR agonistic (progestagenic) activity in estradiol-primed juvenile rabbits; type: in vivo, rabbit; settings: 4 days s.c. treatment, absence of progesterone
T3 construct: effects of PR-modulators in the uterus of estrogen primed immature rabbits (McPhail test); from tissue; host or cells: uterus (endometrium) of estradiol-primed juvenile rabbits, in vivo
T3 sequence (P06186 1-930): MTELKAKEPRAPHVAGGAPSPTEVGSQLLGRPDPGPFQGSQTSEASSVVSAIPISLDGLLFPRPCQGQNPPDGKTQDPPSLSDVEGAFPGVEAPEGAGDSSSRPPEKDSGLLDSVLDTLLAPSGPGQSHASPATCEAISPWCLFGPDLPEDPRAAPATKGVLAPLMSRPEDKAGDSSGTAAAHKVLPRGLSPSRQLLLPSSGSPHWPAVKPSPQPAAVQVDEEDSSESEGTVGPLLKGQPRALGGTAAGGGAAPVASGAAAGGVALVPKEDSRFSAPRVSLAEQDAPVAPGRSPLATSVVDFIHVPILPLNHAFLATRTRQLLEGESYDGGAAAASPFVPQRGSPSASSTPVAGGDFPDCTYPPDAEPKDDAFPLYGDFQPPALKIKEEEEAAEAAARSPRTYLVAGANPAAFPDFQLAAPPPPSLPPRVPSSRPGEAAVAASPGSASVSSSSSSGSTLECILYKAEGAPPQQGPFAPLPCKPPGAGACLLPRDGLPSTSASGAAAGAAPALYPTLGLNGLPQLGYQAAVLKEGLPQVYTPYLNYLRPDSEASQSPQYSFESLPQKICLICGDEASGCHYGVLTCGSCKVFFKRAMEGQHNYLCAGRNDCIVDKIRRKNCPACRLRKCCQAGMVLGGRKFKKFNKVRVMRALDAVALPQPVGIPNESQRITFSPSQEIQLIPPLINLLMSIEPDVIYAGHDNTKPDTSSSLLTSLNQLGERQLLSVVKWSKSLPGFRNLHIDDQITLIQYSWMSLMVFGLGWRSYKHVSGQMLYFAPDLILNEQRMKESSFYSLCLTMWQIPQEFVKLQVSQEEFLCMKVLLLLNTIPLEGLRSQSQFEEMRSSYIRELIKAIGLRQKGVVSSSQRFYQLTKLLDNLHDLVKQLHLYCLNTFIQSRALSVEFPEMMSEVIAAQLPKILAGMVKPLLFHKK
Description: In the classical bioassay, the McPhail test, assessing progestagenic and antiprogestagenic effects in rabbits (Selye H., Textbook of Endocrinology, 1947, pp. 345-346), progesterone produces a maximum McPhail score of 4 (by definition).
(§2) The PR antagonistic and agonistic properties of mesoprogestins were assessed in estrogen-primed rabbits in the McPhail test according to Selye (Textbook of Endocrinology, 1947, pp. 345-346).

[5] = target: T3, progesterone receptor (PR); experiment: McPhail test, PR antagonistic (antiprogestagenic) activity in estradiol-primed juvenile rabbits in the presence of progesterone; type: in vivo; settings: 4 days s.c., in the presence of progesterone 1 mg/rabbit s.c.
Description: The capacity of mesoprogestins to antagonize progesterone function is also tested in the McPhail test using a progesterone dose which induces a McPhail score ranging between 3 and 4.
as §2

endometriosis = settings: women treated with danazol; cited from earlier work
menorrhagia = settings: women with ovulatory menorrhagia, acute administration during bleeding; cited from earlier work

COCC1(O)CCC2C3CCC4=CC(=O)CCC4=C3C(c3ccc(C=NO)cc3)CC21C (stereo not drawn) [J912, 4-[17β-Hydroxy-17α-(methoxymethyl)-3-oxoestra-4,9-dien-11β-yl]benzaldehyd-(1E)-oxim]
abortifacient activity ED50, guinea pig (pregnant guinea pigs): >100 mg/animal/day | ranking of abortifacient activity (pregnant guinea pigs): RU486>J956>J867, J912>J1042 | RBA (%) GR (GR): 16% | abortifacient activity ED50, rat (pregnant rats): 0.36 mg/animal/day | RBA (%) PR [1]: 162%

CCOC(=O)O/N=C/c1ccc([C@H]2C[C@@]3(C)[C@@H](CC[C@]3(COC)OC)[C@@H]3CCC4=CC(=O)CCC4=C32)cc1 [J 900, 4-[17β-Methoxy-17α-(methoxymethyl)-3-oxoestra-4,9-dien-11β-yl]benzaldehyd-(1E)-[O-(ethoxy)carbonyl]oxim]
antiprogestagenic activity [2]: strong | antiglucocorticoid activity compared to RU 486 [3]: markedly reduced | uterine weights (cyclic guinea pigs): reduced uterine weights

COC[C@]1(OC)CC[C@H]2[C@@H]3CCC4=CC(=O)CCC4=C3[C@@H](c3ccc(/C=N/OC(C)=O)cc3)C[C@@]21C [J 914, 4-[17β-Methoxy-17α-(methoxymethyl)-3-oxoestra-4,9-dien-11β-yl]benzaldehyd-(1E)-(O-acetyl)oxim]
antiprogestagenic activity [2]: strong | antiglucocorticoid activity compared to RU 486 [3]: markedly reduced | uterine weights (cyclic guinea pigs): reduced uterine weights

CN(C)c1ccc([C@H]2C[C@]3(C)[C@@H](CC[C@]3(O)CCCO)[C@@H]3CCC4=CC(=O)CCC4=C32)cc1 [Onapristone, reference compound]
abortifacient activity ED50, guinea pig (pregnant guinea pigs): ca 3 mg/animal/day | RBA (%) GR (GR): 39% | abortifacient activity ED50, rat (pregnant rats): 1.71* mg/animal/day | RBA (%) PR [1]: 22%

CC(=O)[C@H]1CC[C@H]2[C@@H]3CCC4=CC(=O)CC[C@]4(C)[C@H]3CC[C@]12C [Progesterone]
dose at which progestagenic effect / endometrial transformation was observed [4]: ≥ 0.1 mg/rabbit | dose of maximum effect [4]: 1 mg/rabbit | maximum effect, McPhail score [4]: ~4 McPhail score

CC#C[C@]1(O)CC[C@H]2[C@@H]3CCC4=CC(=O)CCC4=C3[C@@H](c3ccc(N(C)C)cc3)C[C@@]21C [RU 486, mifepristone, reference compound]
abortifacient activity ED50, guinea pig (pregnant guinea pigs): 3.8 mg/animal/day | ranking of abortifacient activity (pregnant guinea pigs): RU486>J956>J867, J912>J1042 | dose of first antiprogestagenic effect [5]: 0.3-1 mg/rabbit | RBA (%) GR (GR): 685% | abortifacient activity ED50, rat (pregnant rats): 0.98* mg/animal/day

C#C[C@]1(O)CC[C@H]2[C@@H]3CCC4=Cc5oncc5C[C@]4(C)[C@H]3CC[C@@]21C [danazol]
women with side effects (endometriosis): ≤ 85%

NC[C@H]1CC[C@H](C(=O)O)CC1 [tranexamic acid]
blood loss reduction (menorrhagia): 45%
